The values below are quoted from earlier work in US20210315915A1, “PHARMACEUTICAL COMPOSITIONS OF RIBAVIRIN” (GlaxoSmithKline Intellectual Property (No.2) Limited, priority 2015, published 2021).

The conditions of series [1]: crystalline white powder.
The conditions of series [2]: FDA approved labeling of Rebetol.

With `NC(=O)c1ncn([C@@H]2O[C@H](CO)[C@@H](O)[C@H]2O)n1` [ribavirin, 1-β-D-ribofuranosyl-1H-1,2,4-triazole-3-carboxamide], in series [1], the “solubility in ethanol (96%)” value is on record as “slightly soluble” and the solubility in water entry is given as “freely soluble”. In series [2], the multiple-dose half-life was 12 days and the “persistence in nonplasma compartments” value is listed as ≤ 6 months.
